Data on 11 molecules can be found in patent EP4603105A1, “PHARMACEUTICAL COMPOSITION CONTAINING CYCLIC COMPOUND HAVING SELECTIVE KRAS INHIBITORY EFFECT AGAINST HRAS AND NRAS” (CHUGAI SEIYAKU KABUSHIKI KAISHA, priority 2022, dated 2024).

In assay [1] the test system is human lung cancer strain NCI-H441. The format is cell-based. The procedure, abridged:
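Signal came from […] measured per well once the reagent was added. Beforehand, cells were cultured at 37°C and 5% carbon dioxide on a compound series serially diluted in dimethyl sulfoxide.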

The target in assay [2] is GDP-bound NRAS wild-type protein (Homo sapiens, UniProt P01111). Put plainly: Binding to NRAS by surface plasmon resonance (SPR), KD and KD ratio to KRAS. Put shortly: (§1)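 Each cycle, GDP-bound biotin-Avi RAS was captured (~100–300 RU), compound concentrations were injected low to high for 75 s each at 100 µL/min, then the chip was regenerated. Buffer: HBS pH 7.4, 10 mM MgCl2, 10 µM GDP, 1 mM DTT, 4% DMSO; 30°C. KD from a 1:1 binding model.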

A further assay concerns the target HRAS wild-type protein (Homo sapiens, UniProt P01112). In words: Binding to HRAS by surface plasmon resonance (SPR), KD and KD ratio to KRAS. Put shortly: as §1
The target of assay [3] is GDP-bound KRAS wild-type protein (Homo sapiens, UniProt P01116). In words: Binding to KRAS by surface plasmon resonance (SPR), dissociation constant KD. To be noted: 1:1 binding model. The procedure, abridged:
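Captured GDP-RAS (~100–300 RU) was exposed to increasing compound concentrations, 75 s per step, in running buffer with 10 µM GDP, 10 mM MgCl2 and 4% DMSO at pH 7.4.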

The mark [4] stands for this setting: ratio of KD for GDP-bound NRAS wild-type protein to KD for KRAS.
The mark [5] stands for this setting: ratio of KD for HRAS wild-type protein to KD for KRAS.

Sequence of GDP-bound NRAS wild-type protein (P01111 whole entry): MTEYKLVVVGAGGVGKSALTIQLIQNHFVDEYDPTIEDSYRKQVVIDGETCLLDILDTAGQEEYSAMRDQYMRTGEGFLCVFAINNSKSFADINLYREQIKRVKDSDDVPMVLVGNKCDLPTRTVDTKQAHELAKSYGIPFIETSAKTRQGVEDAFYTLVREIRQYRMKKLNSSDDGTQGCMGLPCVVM
Sequence of HRAS wild-type protein (P01112 whole entry): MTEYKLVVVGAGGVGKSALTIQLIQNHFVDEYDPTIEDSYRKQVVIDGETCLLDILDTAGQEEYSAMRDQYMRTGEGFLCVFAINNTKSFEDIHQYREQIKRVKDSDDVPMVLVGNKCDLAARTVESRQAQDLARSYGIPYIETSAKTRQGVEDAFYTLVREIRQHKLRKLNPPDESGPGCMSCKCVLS
Sequence of GDP-bound KRAS wild-type protein (P01116 1-188 isoform P01116-2): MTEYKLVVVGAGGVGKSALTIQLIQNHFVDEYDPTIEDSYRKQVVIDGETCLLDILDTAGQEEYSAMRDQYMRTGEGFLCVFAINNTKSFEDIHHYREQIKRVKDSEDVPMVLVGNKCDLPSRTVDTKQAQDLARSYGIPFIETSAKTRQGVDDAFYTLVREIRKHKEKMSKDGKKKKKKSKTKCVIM

For `CCCOC[C@H]1C(=O)N[C@@H]([C@@H](C)CC)C(=O)N(C2CC2)CC(=O)N(C)[C@H]2C/C=C\CCN(C2=O)[C@@H](CC2CCC(F)(F)CC2)C(=O)N(C)CC(=O)N[C@@H](CCc2ccc(C(F)(F)F)c(OC)c2)C(=O)N2C[C@H](OCC)C[C@H]2C(=O)N(C)C2(CCC2)C(=O)N(C)[C@@H](C2CCCC2)C(=O)N(C)[C@H](C(=O)N(C)C)CC(=O)N1C` [PP2354], it took 9.3 nM to reach half-maximal inhibition in assay [1] (IC50). Moreover, in assay [2] (ratio of the KD value with respect to GDP-bound NRAS wild-type protein to the KD value with respect to KRAS), the “NRAS /KRAS” value was “A (a compound having 10 or more and less than 20 is denoted as A)”. Moreover, the “HRAS /KRAS” value on HRAS wild-type protein (ratio of the KD value with respect to HRAS wild-type protein to the KD value with respect to KRAS) was “A (a compound having 10 or more and less than 20 is denoted as A)”. The molecule further showed a Kd in assay [3] (Single Cycle Kinetics) of 0.79 nM.

In turn, `CCO[C@@H]1C[C@H]2C(=O)NC3(CC(C)(C)C3)C(=O)N(C)[C@@H](C(CC)CC)C(=O)N(C)[C@H](C(=O)N(C)C)CC(=O)N(C)[C@H]3CC/C=C/c4ccc(cc4)C[C@@H](C(=O)N(C)CC(=O)N[C@@H](CCc4cc(F)c(C(F)(F)F)c(F)c4)C(=O)N2C1)N1CC/C=C\C[C@@H](C1=O)N(C)C(=O)CN(C)C(=O)[C@H]([C@@H](C)CC)NC3=O` [PP2586] yielded an IC50 in assay [1] of 14.4 nM. In addition, the “NRAS /KRAS” value in assay [2] (setting [4]) is “A (a compound having 10 or more and less than 20 is denoted as A)”. At HRAS wild-type protein (setting [5]), the “HRAS /KRAS” value was “B (a compound having 3 or more and less than 10 is denoted as B)”. This molecule had a Kd in assay [3] of 0.17 nM.

In the case of `CCO[C@@H]1C[C@H]2C(=O)NC3(CC(C)(C)C3)C(=O)N(C)[C@@H](C(CC)CC)C(=O)N(C)[C@H](C(=O)N(C)C)CC(=O)N(C)[C@H]3CC/C=C/c4ccc(cc4)C[C@@H](C(=O)N(C)CC(=O)N[C@@H](CCc4ccc(Cl)c(Cl)c4)C(=O)N2C1)N1CC/C=C\C[C@@H](C1=O)N(C)C(=O)CN(C)C(=O)[C@H]([C@@H](C)CC)NC3=O` [PP2589], the IC50 in assay [1] was 74.1 nM. Further, in assay [2] (setting [4]), the “NRAS /KRAS” value is “AA (a compound having 20 or more is denoted as AA)”. The “HRAS /KRAS” value at HRAS wild-type protein (setting [5]) is “A (a compound having 10 or more and less than 20 is denoted as A)”. In addition, binding in assay [3] was put at a Kd of 0.45 nM.

Regarding `CCO[C@@H]1C[C@H]2C(=O)NC3(CC(C)(C)C3)C(=O)N(C)[C@@H](C3CCCC3)C(=O)N(C)[C@H](C(=O)N(C)CC)CC(=O)N(C)[C@H]3CC/C=C/c4ccc(cc4)C[C@@H](C(=O)N(C)CC(=O)N[C@@H](CCc4ccc(Cl)c(Cl)c4)C(=O)N2C1)N1CC/C=C\C[C@@H](C1=O)N(C)C(=O)CN(C1CC1)C(=O)[C@H]([C@@H](C)CC)NC3=O` [PP2598], in assay [1], the IC50 came out at 23 nM. Also, the “NRAS /KRAS” value in assay [2] (setting [4]) was “A (a compound having 10 or more and less than 20 is denoted as A)”. On HRAS wild-type protein (setting [5]), the “HRAS /KRAS” value was “A (a compound having 10 or more and less than 20 is denoted as A)”. Besides, binding in assay [3] was put at a Kd of 1.9 nM.

In assay [1], `CCO[C@@H]1C[C@H]2C(=O)NC3(CCC3)C(=O)N(C)[C@@H](C(CC)CC)C(=O)N(C)[C@H](C(=O)N(C)C)CC(=O)N(C)[C@H]3CCCC/C=C/c4ccc(cc4)C[C@@H](C(=O)N(C)CC(=O)N[C@@H](CCc4ccc(Cl)c(Cl)c4)C(=O)N2C1)N1CC/C=C\C[C@@H](C1=O)N(C)C(=O)CN(C1CC1)C(=O)[C@H]([C@@H](C)CC)NC3=O` [PP2605] yielded an IC50 of 8.7 nM. In addition, in assay [2] (setting [4]), the “NRAS /KRAS” value is “AA (a compound having 20 or more is denoted as AA)”. In addition, the “HRAS /KRAS” value at HRAS wild-type protein (setting [5]) was “A (a compound having 10 or more and less than 20 is denoted as A)”. For the same molecule, the Kd in assay [3] was determined as 0.34 nM.

In assay [1], `CCO[C@@H]1C[C@H]2C(=O)NC3(CCC3)C(=O)N(C)[C@@H](C3CCCC3)C(=O)N(C)[C@H](C(=O)N(C)C)CC(=O)N(C)[C@@H](CC3CCCC3)C(=O)N[C@@H]([C@@H](C)CC)C(=O)N(C)CC(=O)N(C)[C@H]3C/C=C\CCN(C3=O)[C@@H](Cc3ccc(C)cc3)C(=O)N(C)CC(=O)N[C@@H](CCc3ccc(C(F)(F)F)c(C4CC4)c3)C(=O)N2C1` [PP2681] registered an IC50 of 29.1 nM. In addition, the “NRAS /KRAS” value in assay [2] (setting [4]) is “A (a compound having 10 or more and less than 20 is denoted as A)”. The “HRAS /KRAS” value on HRAS wild-type protein (setting [5]) was “A (a compound having 10 or more and less than 20 is denoted as A)”. Further, the Kd in assay [3] came to 0.37 nM.

Turning to `CCO[C@@H]1C[C@H]2C(=O)NC3(CCC3)C(=O)N(C)[C@@H](C3CCCC3)C(=O)N(C)[C@H](C(=O)N(C)C)CC(=O)N(C)[C@@H](CC3CCCC3)C(=O)N[C@@H]([C@@H](C)CC)C(=O)N(C)CC(=O)N(C)[C@H]3C/C=C\CCN(C3=O)[C@@H](Cc3ccc(C)cc3)C(=O)N(C)CC(=O)N[C@@H](CCc3ccc(C4CC4)c(Cl)c3)C(=O)N2C1` [PP2684], in assay [1], inhibition was half-maximal at 57.9 nM (IC50). Further, the “NRAS /KRAS” value in assay [2] (setting [4]) is “A (a compound having 10 or more and less than 20 is denoted as A)”. Further, the “HRAS /KRAS” value at HRAS wild-type protein (setting [5]) was “A (a compound having 10 or more and less than 20 is denoted as A)”. The molecule further showed a Kd in assay [3] of 0.43 nM.

Regarding `CCO[C@@H]1C[C@H]2C(=O)NC3(CCC3)C(=O)N(C)[C@@H](C3CCCC3)C(=O)N(C)[C@H](C(=O)N(C)C)CC(=O)N(C)[C@@H](CC3CCCC3)C(=O)N[C@@H]([C@@H](C)CC)C(=O)N(C)CC(=O)N(C)[C@H]3C/C=C\CCN(C3=O)[C@@H](Cc3ccc(C)cc3)C(=O)N(C)CC(=O)N[C@@H](CCc3ccc(CC)c(F)c3)C(=O)N2C1` [PP2686], 162 nM corresponded to half-maximal inhibition in assay [1] (IC50). Moreover, the “NRAS /KRAS” value in assay [2] (setting [4]) is “A (a compound having 10 or more and less than 20 is denoted as A)”. The “HRAS /KRAS” value at HRAS wild-type protein (setting [5]) was “A (a compound having 10 or more and less than 20 is denoted as A)”. The molecule further showed a Kd in assay [3] of 3.3 nM.

`CCC[C@H]1C(=O)N[C@@H]([C@@H](C)CC)C(=O)N(C)CC(=O)N(C)[C@H]2C/C=C\CCN(C2=O)[C@@H](Cc2ccc(C)cc2)C(=O)N(C)CC(=O)N[C@@H](CCc2ccc(CC)c(Cl)c2)C(=O)N2C[C@H](OCC)C[C@H]2C(=O)NC2(CC(C)(C)C2)C(=O)N(C)[C@@H](C(CC)CC)C(=O)N(C)[C@H](C(=O)N(C)C)CC(=O)N1C` [PP2779] displayed a concentration for half-maximal inhibition (IC50) in assay [1] of 112 nM. In addition, in assay [2] (setting [4]), the “NRAS /KRAS” value was “A (a compound having 10 or more and less than 20 is denoted as A)”. In addition, the “HRAS /KRAS” value on HRAS wild-type protein (setting [5]) was “A (a compound having 10 or more and less than 20 is denoted as A)”. In assay [3], this molecule had a Kd of 3.4 nM.

`CCC[C@H]1C(=O)N[C@@H]([C@@H](C)CC)C(=O)N(C)CC(=O)N(C)[C@H]2C/C=C\CCN(C2=O)[C@@H](Cc2ccc(C)cc2)C(=O)N(C)CC(=O)N[C@@H](CCc2cc(F)c(C(F)(F)F)c(F)c2)C(=O)N2C[C@H](OCC)C[C@H]2C(=O)NC2(CC(C)(C)C2)C(=O)N(C)[C@@H](CC2CC2)C(=O)N(C)[C@H](C(=O)N(C)C)CC(=O)N1C` [PP2797] came in with an IC50 in assay [1] of 52.8 nM. In addition, the “NRAS /KRAS” value in assay [2] (setting [4]) is “A (a compound having 10 or more and less than 20 is denoted as A)”. The “HRAS /KRAS” value at HRAS wild-type protein (setting [5]) is “A (a compound having 10 or more and less than 20 is denoted as A)”. In assay [3], binding was put at a Kd of 0.6 nM.

In turn, `CCC[C@H]1C(=O)N[C@@H]([C@@H](C)CC)C(=O)N(C)CC(=O)N(C)[C@H]2C/C=C\CCN(C2=O)[C@@H](Cc2ccc(C)cc2)C(=O)N(C)CC(=O)N[C@@H](CCc2ccc(Cl)c(Cl)c2)C(=O)N2C[C@H](OCC)C[C@H]2C(=O)NC2(CC(C)(C)C2)C(=O)N(C)[C@@H](CC2CC2)C(=O)N(C)[C@H](C(=O)N(C)C)CC(=O)N1C` [PP2799] registered an IC50 in assay [1] of 136 nM. The “NRAS /KRAS” value in assay [2] (setting [4]) is “A (a compound having 10 or more and less than 20 is denoted as A)”. The “HRAS /KRAS” value at HRAS wild-type protein (setting [5]) is “A (a compound having 10 or more and less than 20 is denoted as A)”. The same molecule gave a Kd in assay [3] of 1.2 nM.
